Experimental findings from US20260250325A1, “Antiviral Polypeptide Membrane Fusion Inhibitor, and Preparation Method and Application Thereof” (priority 2025, published 2026) are described below.

Where a SMILES comes first, the peptide text is derived from it. The star is where a group is joined. Succinyl(4-O-cholesteryl) = CC(C)CCC[C@@H](C)[C@H]1CC[C@H]2[C@@H]3CC=C4C[C@@H](OC(=O)CCC(=O)*)CC[C@]4(C)[C@H]3CC[C@]12C; X1 = CC(C)CCCC(C)C1CCC2C3CC=C4CC(OC(=O)CCC(=O)*)CCC4(C)C3CCC12C

One assay has as its system hPIV3 C243 virus strain. The format is cell-based, hPIV. As to conditions: LLC-MK2 cells, hPIV3 C243, plaque reduction; read-out: EC50 against hPIV3 virus. The procedure:
Rhesus monkey kidney cells (LLC-MK2) were sourced from the ATCC, with a catalog number CCL-7.1. The cells were cultured in a DMEM culture solution in which 10% fetal bovine serum, 1% non-essential amino acids, 1% sodium pyruvate, 1% L-glutamine, 100 U/ml penicillin, and 100 μg/ml streptomycin were added.
An HPIV-3 plaque experiment culture medium consisted of a DMEM culture solution added with 2% fetal bovine serum, 1% non-essential amino acids, 1% sodium pyruvate, 1% L-glutamine, 100 U/ml penicillin, and 100 μg/ml streptomycin.
The hPIV Type 3 (hPIV3 C243) was sourced from the ATCC, with a catalog number VR-93.
This study used the plaque reduction experiment to detect the in-vitro activity of the test sample against the hPIV3 C243 virus strain, and Human Anti-HPIV3 Monoclonal Antibody, clone PIA174 was an experimental system control. The test sample and a system experimental antibody were tested at 8 concentrations in duplicated wells.
The LLC-MK2 cells were digested with trypsin and then diluted to a concentration of 400,000 cells per milliliter by using a cell culture solution containing 2% serum. The diluted cells were added to a 96-well cell test board, with 100 μL per well, corresponding to 40,000 cells per well. The cells were cultured overnight in a 37° C. incubator with 5% CO2.
On the next day, the sample diluted at a fold ratio and an equal volume of virus (approximately 200 PFU per well) were well mixed and incubated at 37° C. in 5% CO2 for 1 hour. Then, the culture solution in the 96-well cell test board was discarded, the sample virus mixed solution (100 μL) was added to the 96-well cell culture plate, and incubated at 37° C. in 5% CO2 for 2 hours. After 2 h, the sample virus mixed solution was discarded, 200 μL of an experiment culture medium containing the test sample with a corresponding concentration was added, and the culture solution contained 0.8% CMC. A final concentration of DMSO in the culture solution was 0.5%. A control antibody was directly added to the experiment culture solution containing 0.8% CMC. A cell control (cells, without compound treatment or viral infection) and a viral control (cell infection virus, without compound treatment) were set. The cells were cultured for 1 day in the 37° C. incubator with 5% CO2.
The cells were fixed with 4% paraformaldehyde, and then permeabilization was performed with 0.5% Triton X-100. After the plate was washed with DPBS, a hPIV specific antibody (1:2000 dilution) was added and incubated at 37° C. for 1.5 h. Then, a secondary antibody (1:500 dilution) was added and incubated at 37° C. for 1 hour. The secondary antibody was discarded, a TrueBlue solution was added, dyeing was performed for approximately 10 minutes; and the plate was washed with running water and then air-dried, and the number of spots in each well was counted by using a microplate imaging counter.
Raw data was used for calculating the antiviral activity of the samples, and a calculation formula was shown as follows.
% inhibition rate=100−(sample value-cell control average value)/(virus control average value-cell control average value)×100
Non-linear fitting analysis was performed on the inhibition rate of the sample by using GraphPad Prism (version 10), so as to calculate an EC50 value for the sample. A fitting formula was log (inhibitor) vs. response-Variable slope (four parameters).

Another assay concerns the target T1, hMPV-N46 (127-172) (Human metapneumovirus, UniProt Q6WB98).
T1 construct: hMPV-N46 (127-172)
In words: SPR affinity to hMPV-N46 coupled on CM5 chip. The format is binding. The procedure: hMPV and hPIV were two viruses having a typical Class I fusion protein-F protein. An F protein precursor F0 was cracked into F1 and F2 subunits. […] When the compound flowed through a chip surface, changes in an SPR signal were monitored in real time, binding and dissociation processes were recorded, and a binding rate constant (ka) and a dissociation rate constant (kd) were further obtained through kinetic analysis, thereby calculating an equilibrium dissociation constant (KD=kd/ka).
A CM5 chip with a catalog number 29149603, an amino coupling reagent kit with a catalog number BR100050, HBS-EP+Buffer (10×), sodium acetate (pH 4.0), and a 10 mM glycine-HCl buffer (pH 2.0) were all purchased from GE Health.
CM5 chip coupling: Channels 2 and 4 of the CM5 chip were activated for 7 min by using a freshly-prepared mixture of 50 mM Hydroxy succinimide (NHS) and 200 mM 1-(3-Dimethylaminopropyl)-3-ethylcarbodiimide (EDC) according to 1:1; and then, hMPV-N46 or hPIV-N51 was diluted and dissolved with sodium acetate with 4.0 pH to a concentration of 30 μM, with a flow rate of 10 μl/min and time of 600 s. An experimental buffer was HBS-EP+buffer (1×). Finally, the chip was blocked with 1 M ethanolamine. The instrument was set to a temperature of 25° C.
Affinity detection: the buffer used in the experiment was HBS-EP+buffer (1×), and a multi-cycle dynamic mode was used. Channels 1 and 3 of the chip served as blank reference channels; polypeptides to be detected sequentially flowed through Channels 2 and 4 at concentrations of 0 μM, 0.04 µM, 0.12 µM, 0.37 μM, 1.11 µM, 3.33 µM, 10 µM, and 30 μM; the flow rate was 30 μl/min, binding was performed for 180 s, and dissociation was performed for 120 s. Finally, the chip was regenerated by injecting 10 mM glycine (pH 2.0). The instrument was set to a temperature of 25° C.

T1 sequence (Q6WB98 127-172): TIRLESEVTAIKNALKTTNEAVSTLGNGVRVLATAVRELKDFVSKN

`CC[C@H](C)[C@H](NC(=O)[C@H](CCCCN)NC(=O)[C@H](CCCCN)NC(=O)[C@H](CC(C)C)NC(=O)[C@H](CO)NC(=O)[C@H](CCC(=O)O)NC(=O)[C@H](CCC(=O)O)NC(=O)[C@@H](NC(=O)[C@H](CCCCN)NC(=O)[C@H](CCCCN)NC(=O)[C@H](CC(N)=O)NC(=O)[C@@H](NC(=O)[C@H](CCC(=O)O)NC(=O)[C@H](CCC(=O)O)NC(=O)[C@@H](NC(=O)[C@H](CCCCN)NC(=O)[C@H](CCCCN)NC(=O)[C@H](CC(=O)O)NC(=O)[C@H](Cc1ccccc1)NC(=O)[C@H](CCC(=O)O)NC(=O)[C@H](CC(=O)O)NC(=O)[C@H](Cc1c[nH]c2ccccc12)NC(C)=O)[C@@H](C)CC)C(C)C)[C@@H](C)CC)C(=O)N[C@@H](CCC(=O)O)C(=O)N[C@@H](CCC(=O)O)C(=O)N[C@@H](CO)C(=O)N[C@@H](CC(=O)O)C(=O)N[C@@H](CCCCN)C(=O)N[C@@H](CCCCN)C(=O)N[C@@H](CC(C)C)C(=O)N[C@@H](CCC(=O)O)C(=O)N[C@@H](C)C(=O)N[C@@H](C)C(=O)N[C@@H](C)C(=O)N[C@@H](CCCCN)C(=O)N[C@@H](CCCCNC(=O)CCC(=O)O[C@H]1CC[C@@]2(C)C(=CC[C@H]3[C@@H]4CC[C@H]([C@H](C)CCCC(C)C)[C@@]4(C)CC[C@@H]32)C1)C(N)=O` [Compound 13] (Ac-WDEFDKKIEEVNKKIEESLKKIEESDKKLEAAAKK(Succinyl(4-O-cholesteryl))-NH2): the half-maximal effective concentration (EC50) (usually the concentration needed to bring the measured effect to its halfway point) with hPIV3 C243 virus strain was found to be 35.6 nM. Besides, the Kd – broadly, the equilibrium constant for the complex coming apart – on hMPV-N46 (127-172) was found to be 3210 nM.
For `CC[C@H](C)[C@H](NC(=O)[C@H](CCCCN)NC(=O)[C@H](CCCCN)NC(=O)[C@H](CC(C)C)NC(=O)[C@H](CO)NC(=O)[C@H](CCC(=O)O)NC(=O)[C@H](CCC(=O)O)NC(=O)[C@@H](NC(=O)[C@H](CCCCN)NC(=O)[C@H](CCCCN)NC(=O)[C@H](CC(N)=O)NC(=O)[C@@H](NC(=O)[C@H](CCC(=O)O)NC(=O)[C@H](CCC(=O)O)NC(=O)[C@@H](NC(=O)[C@H](CCCCN)NC(=O)[C@H](CCCCN)NC(=O)[C@H](CCCCN)NC(=O)[C@H](CC(=O)O)NC(=O)[C@H](Cc1ccccc1)NC(=O)[C@H](CCC(=O)O)NC(=O)[C@H](CC(=O)O)NC(C)=O)[C@@H](C)CC)C(C)C)[C@@H](C)CC)C(=O)N[C@@H](CCC(=O)O)C(=O)N[C@@H](CCC(=O)O)C(=O)N[C@@H](CO)C(=O)N[C@@H](CC(=O)O)C(=O)N[C@@H](CCCCN)C(=O)N[C@@H](CCCCN)C(=O)N[C@@H](CC(C)C)C(=O)N[C@@H](CCC(=O)O)C(=O)N[C@@H](CCC(=O)O)C(=O)N[C@H](C(=O)NCC(=O)N[C@@H](CO)C(=O)NCC(=O)N[C@@H](CO)C(=O)NCC(=O)N[C@@H](CCCCNC(=O)CCC(=O)O[C@H]1CC[C@@]2(C)C(=CC[C@H]3[C@@H]4CC[C@H]([C@H](C)CCCC(C)C)[C@@]4(C)CC[C@@H]32)C1)C(N)=O)C(C)C` [Compound 15] (Ac-DEFDKKKIEEVNKKIEESLKKIEESDKKLEEVGSGSGK(Succinyl(4-O-cholesteryl))-NH2), the EC50 with hPIV3 C243 virus strain amounted to 20.7 nM. Moreover, the affinity on hMPV-N46 (127-172), expressed as Kd, was 38.1 nM.
Take `CC[C@H](C)[C@H](NC(=O)[C@H](CCCCN)NC(=O)[C@H](CCCCN)NC(=O)[C@H](CC(C)C)NC(=O)[C@H](CO)NC(=O)[C@H](CCC(=O)O)NC(=O)[C@H](CCC(=O)O)NC(=O)[C@@H](NC(=O)[C@H](CCCCN)NC(=O)[C@H](CCCCN)NC(=O)[C@H](CC(N)=O)NC(=O)[C@@H](NC(=O)[C@H](CCC(=O)O)NC(=O)[C@H](CCC(=O)O)NC(=O)[C@@H](NC(=O)[C@H](CCCCN)NC(=O)[C@H](CCCCN)NC(=O)[C@H](CC(=O)O)NC(=O)[C@H](Cc1ccccc1)NC(=O)[C@H](CCC(=O)O)NC(=O)[C@H](CC(=O)O)NC(=O)[C@H](CO)NC(C)=O)[C@@H](C)CC)C(C)C)[C@@H](C)CC)C(=O)N[C@@H](CCC(=O)O)C(=O)N[C@@H](CCC(=O)O)C(=O)N[C@@H](CO)C(=O)N[C@@H](CC(=O)O)C(=O)N[C@@H](CCCCN)C(=O)N[C@@H](CCCCN)C(=O)N[C@@H](CC(C)C)C(=O)N[C@@H](CCC(=O)O)C(=O)N[C@@H](C)C(=O)N[C@@H](C)C(=O)N[C@@H](C)C(=O)N[C@@H](CCCCN)C(=O)N[C@@H](CCCCNC(=O)CCC(=O)O[C@H]1CC[C@@]2(C)C(=CC[C@H]3[C@@H]4CC[C@H]([C@H](C)CCCC(C)C)[C@@]4(C)CC[C@@H]32)C1)C(N)=O` [Compound 16] (Ac-SDEFDKKIEEVNKKIEESLKKIEESDKKLEAAAKK(Succinyl(4-O-cholesteryl))-NH2): the EC50 in the assay with hPIV3 C243 virus strain stood at 59 nM. Moreover, the equilibrium dissociation constant (Kd) at hMPV-N46 (127-172) worked out at 3060 nM.
As for `CC[C@H](C)[C@H](NC(=O)[C@H](CCCCN)NC(=O)[C@H](CCCCN)NC(=O)[C@H](CC(C)C)NC(=O)[C@H](CO)NC(=O)[C@H](CCC(=O)O)NC(=O)[C@H](CCC(=O)O)NC(=O)[C@@H](NC(=O)[C@H](CCCCN)NC(=O)[C@H](CCCCN)NC(=O)[C@H](CC(N)=O)NC(=O)[C@@H](NC(=O)[C@H](CCC(=O)O)NC(=O)[C@H](CCC(=O)O)NC(=O)[C@@H](NC(=O)[C@H](CCCCN)NC(=O)[C@H](CCCCN)NC(=O)[C@H](CC(=O)O)NC(=O)[C@H](Cc1ccccc1)NC(=O)[C@H](CCC(=O)O)NC(=O)[C@H](CC(=O)O)NC(C)=O)[C@@H](C)CC)C(C)C)[C@@H](C)CC)C(=O)N[C@@H](CCC(=O)O)C(=O)N[C@@H](CCC(=O)O)C(=O)N[C@@H](CO)C(=O)N[C@@H](CC(=O)O)C(=O)N[C@@H](CCCCN)C(=O)N[C@@H](CCCCN)C(=O)N[C@@H](CC(C)C)C(=O)N[C@@H](CCC(=O)O)C(=O)N[C@@H](CCC(=O)O)C(=O)N[C@H](C(=O)N[C@@H](CCC(=O)O)C(=O)N[C@@H](C)C(=O)N[C@@H](C)C(=O)N[C@@H](C)C(=O)N[C@@H](CCCCN)C(=O)N[C@@H](CCCCNC(=O)CCC(=O)OC1CCC2(C)C(=CCC3C2CCC2(C)C(C(C)CCCC(C)C)CCC32)C1)C(N)=O)C(C)C` (some centres unmarked) [Compound 21] (Ac-DEFDKKIEEVNKKIEESLKKIEESDKKLEEVEAAAKK(X1)-NH2), the EC50 in the assay on hPIV3 C243 virus strain was 21.3 nM.
Regarding “Ac-SLEQVNEKINQSLAFIRKSDEINQSDEEVNKSDELLEAAAKK-NH2 [Compound 50]”, in the assay on hPIV3 C243 virus strain, the EC50 was 34.8 nM.
